Measurements reported in patent US9456589B2, “Elasmobranch-repelling compounds and methods of use” (priority 2005, dated 2016).
Read-outs that look alike come from different tables or passages of the source.

Key:
[1] = system: Caribbean reef sharks; experiment: Cloud dispersion assay (cloud - co2); format: in vivo, C. perezii; settings: for Comments (effect on shark population): cloud, 500 mL
From the text: Another bioassay used to observe a flight response in sharks is a cloud dispersion assay on competitively feeding population of sharks. This assay is referred to as a “Cloud Dispersion Assay” or “Cloud Assay.” A pressurized fluid delivery system was designed to deliver repellent into large feeding populations of sharks. The repellent is released as a subsurface cloud, which follows the current. A 1 L plastic container containing the test chemical repellent solution is pressurized to approximately 20 psig with a battery compressor or hand pump. A globe valve is used to hold back the fluid. The fluid is delivered to the end of a long PVC pole using a Teflon tubing. This allows the operator to place the tip of the pole well into a population of feeding sharks. By actuating the small globe valve, a cloud of the chemical solution is released quickly and reliably into the feeding population. Controls are established using FD&C Red 40 dye and seawater, uncolored seawater, and air. These controls establish that sharks are not afraid to approach the delivery pole, nor are sharks deterred from feeding by the jet of control fluid or air.
Syringe 3/5/10, Hd Syringe and Micropipette assays were carried out as described in Examples 1 and 2.

[2] = system: lemon sharks; experiment: Tonic immobility, Hd Syringe Assay; format: in vivo, N. brevirostris; settings: lemon sharks
Protocol: (§1) One bioassay used to observe and measure flight response is the tonic immobility test. Tonic immobility is a state of paralysis that typically occurs when a shark is subject to inversion of its body along the longitudinal axis. This state is called “tonic,” and the shark can remain in this state for up to 15 minutes thereby allowing researchers to observe effects of chemical repellents. The “tonic” state of the shark is first established by releasing seawater in proximity to the “tonic” shark with the same delivery instrument and at the same distance as a “test” repellent compound will be released. Some controls are released with a high flow rate (30 mL/sec) in order to establish that sharks are not awakened by a jet of fluid over their noses. Once behavioral controls are established, a compound or composition that may have a repelling effect is delivered to the shark. If the compound or composition engenders a flight response, the shark will awaken from the tonic state and rapidly attempt to flee the delivered repellent. Using this tonic immobility bioassay researches can quantify the strength of a repellent effect.
(§2) Lemon, nurse, blacktip and tiger sharks were placed in tonic immobility by inverting the shark's body along its longitudinal axis. […] The “tonic” state of each shark was first established by releasing a control of seawater in proximity to the shark with the same delivery instrument and at the same distance as the chemical repellent would later be delivered. In certain controls, sea water was released with a high flow rate (30 mL/sec) in order to establish that the sharks would not be awakened by a jet of fluid over their noses.
Once behavioral controls were established, the chemical repellent was delivered to the shark using the Hd Syringe Assay method, the Syringe 3/5/10 Assay method, the Bite Assay method or the Micropipette Assay method. […]

[3] = system: nurse sharks; experiment: Tonic immobility, Hd Syringe Assay; format: in vivo, C. cirratum; settings: juvenile nurse shark
Protocol: as §1
Lemon, nurse, blacktip and tiger sharks were placed in tonic immobility by inverting the shark's body along its longitudinal axis. […]

[4] = system: blacktip sharks; experiment: Tonic immobility, Syringe 3/5/10 Assay; format: in vivo, C. limbatus
Protocol: as §1
(§3) In the tonic immobility studies disclosed herein, several different methods were employed for delivery of repelling compounds. A first method for delivery of chemical repellent in tonic immobility studies employed a “Syringe 3/5/10 Assay” method. The “Syringe 3/5/10 Assay” method is so named because a test repellent is delivered to a shark from a distance of about “3” inches with a bolus of about “5” mL with a response to the test repellent considered positive if the shark reacts with a change in behavior within less than about “10” seconds from the time of delivery.
(§4) The “3/5/10 Syringe Assay” as employed herein delivered a dose of 5-6 mL of a test chemical repellent from a syringe fixed with a needle having a gauge of about 22 from a distance at least 3 inches in front of a shark. Because the test chemical repellent was delivered at a distance from the shark's nares and mouth, a cloud of test chemical repellent was dispersed over the shark within the water column. The dispersed test repellent was subject to water current direction, dispersion and dilution. As a result, a flight response within 10 seconds was considered a positive repellency response. […] Time from delivery to response is related to the size of the bolus delivered from the syringe, distance of the shark from the syringe and water current.
as §2
(§5) Once behavioral controls were established, the chemical repellent was delivered to the shark using the Hd Syringe Assay method, the Syringe 3/5/10 Assay method, the Bite Assay method or the Micropipette Assay method. […] If tonic immobility was terminated, the positive response was denoted as “Y.” If tonic immobility was not terminated but a behavior change within tonic immobility was noted, such as the opening of the mouth or a cough, the response was denoted as an “R” for reduced response. If no behavior change was observed, the negative response was denoted “N.”
In Syringe 3/5/10 Assays, 5-6 mL of 3-methylbutanal was delivered at least 3 inches in front of the shark's mouth. A cloud of the repellent dispersed over the shark within the water column. […] As noted above, because the dispersion of the chemical repellent upon delivery is affected by volume of repellent, water current, and other factors, the time between delivery and response was not correlatable with the potency of the repellent. […]

[5] = system: sharks (lemon, nurse, tiger pooled); experiment: Tonic immobility, Hd Syringe Assay, summary over species; format: in vivo; settings: species pooled
Protocol: as §1
In Hd-Syringe Assays, the 3-methylbutanal was delivered to the shark's mouth and nares using a 3 mL hypodermic syringe fitted with a 22 gauge needle. The needle was held within 3 inches of the shark's mouth and the test repellent was slowly released from the syringe with a very fine plume in the water column. Any response was denoted. If a response occurred during a measurable time after delivery of the test chemical, the time between delivery and response was noted. If a response occurred immediately or the response occurred before a measurable time could be established, no time to response was noted.

[6] = system: nurse sharks; experiment: Tonic immobility, Syringe 3/5/10 Assay; format: in vivo, C. cirratum; settings: Table 24; nurse shark; syringe 3/5/10 delivery; 6 ml; mouth
[7] = system: juvenile lemon and nurse sharks; experiment: Tonic immobility, Micropipette Assay, summary over species; format: in vivo; settings: for Micropipette Y (termination of tonic immobility), trials of trials: juvenile lemon and nurse sharks, oral dose
Protocol: as §1
(§6) A fourth method of delivery was called the “Micropipette Assay” method of delivery. In this method, a very small dose (fraction of a mL) of a test substance was delivered directly into a shark's mouth. […] A response, such as a cough or other notable action of the shark, was usually noted when effective gustatory repellents were delivered directly into a shark's mouth while in tonic immobility.
(§7) The Micropipette Assay method has not proven to be a particularly effective method of assaying for a flight response in elasmobranchs. The Micropipette Assay method is, nevertheless, an excellent method for specifying that a gustatory response has occurred. It is effective for specifying a gustatory response because the micropipette delivery method allows direct delivery of an entire bolus of test substance into the mouth of the shark being tested.
An oral dose of no more than 400 microliters was then delivered by micropipette into the mouth of a juvenile nurse shark. Tonic immobility was terminated. For each derivative of butyric acid and each naturally occurring acid listed in Table 9, a first micropipette assay was performed on a juvenile lemon shark with no more than 100 microliters of test acid in an oral dose. A second micropipette assay was then performed on a juvenile nurse shark with no more than 400 microliters of test acid in an oral dose. In each test, tonic immobility was terminated.
In a first set of studies on the effectiveness of carboxylic acids as elasmobranch repellents, each tested substance was subjected to the following protocol. […] An oral dose of no more than 400 microliters was then delivered by micropipette into the mouth of a juvenile nurse shark. Tonic immobility was terminated. […] The data evidences the gustatory repelling activity of carboxylic acids.

[8] = system: nurse sharks; experiment: Tonic immobility, Micropipette Assay; format: in vivo, C. cirratum
Protocol: as §1, §6
as §7, with “tested. […]” for “tested.”

[9] = system: sharks (lemon, nurse, blacktip, tiger, blacknose pooled); experiment: Tonic immobility, Syringe 3/5/10 Assay, summary over species; format: in vivo
Protocol: as §1, §3, §4
In Syringe 3/5/10 Assays, 5-6 mL of 3-methylbutanal was delivered at least 3 inches in front of the shark's mouth. A cloud of the repellent dispersed over the shark within the water column. […] As noted above, because the dispersion of the chemical repellent upon delivery is affected by volume of repellent, water current, and other factors, the time between delivery and response was not correlatable with the potency of the repellent.

[10] = system: juvenile sharks; experiment: Initial tonic immobility assays, mouth delivery by micropipette or syringe; format: in vivo; settings: introduced to the mouth using a micropipette or syringe
[11] = system: lemon sharks; experiment: Tonic immobility, Micropipette Assay; format: in vivo, N. brevirostris; settings: juvenile lemon shark, micropipette
Protocol: as §1, §6, §7
Using a microliter syringe or microliter pipette, a bolus of test chemical can be directed precisely into one of the shark's nares, or its mouth. […] Olfactory repellents will terminate tonic immobility almost immediately when injected into a nare of the shark.
as §2, §5
Further because the Micropipette assays were often done serially on the same set of sharks, second and third doses of the repellent over time would be expected to evoke less of a reaction. Nevertheless, the small doses delivered to the shark in the Micropipette assay provide important data on whether a compound is a gustatory stimulant because the small dose may be delivered directly into the mouth of the shark. This eliminates any olfactory response that might be acting in concert with a gustatory response to terminate tonic immobility.

[12] = listed as crotonic acid solution

With `Cc1cccnc1N` [2-amino-3-picoline] the “T?” value ([1]; cloud - co2, 500 mL) was “Y”, the “Comments (effect on shark population)” value [1] was “population decreased” and the “Comments (effect on shark population)” value ([1]; listed as 2-amino-3-picoline 95% cut to 10% w/w with desalinated water) was “population decrease”.
`Cc1c(N)c(=O)n(-c2ccccc2)n1C` [4-aminoantipyrine] was tested, and the “Hd Syringe assays terminating tonic immobility” value [2] was “all assays terminated tonic immobility”, the “Hd Syringe assays terminating tonic immobility” value [3] was “terminated” and the “Syringe 3/5/10 assays with no response” value ([4]; blacktip sharks) was “no response”. For the same compound, the “Hd-Syringe Y (termination of tonic immobility), trials of trials” value (shortened to “Hd-Syringe Y”) [5] was “terminated tonic immobility in all tests”, the “Hd-Syringe Y” value ([5]; listed as 4-amino-antipyrine) was “five of five” and the “Hd-Syringe Y” value ([5]; listed as 4-amino-antipyrine (metapirazone)) was 5/5.
With `O=C(O)CC(O)(CC(=O)O)C(=O)O` [Citric acid 50% w/w, Citric acid] the “Hd Syringe assays terminating tonic immobility” value [2] was “four of four”, the “T? (termination of tonic immobility)” value [6] was “R” and the “T? (termination of tonic immobility)” value ([4]; Table 24, blacktip shark, syringe 3/5/10 delivery, 6 ml, mouth longline) was “Y”. For the same compound, the “Hd-Syringe Y” value [5] was 4/4 and the “Micropipette Y (termination of tonic immobility), trials of trials” value (“Micropipette Y” for short) [7] was 2/2.
In the case of `c1ccncc1` [Pyridine, pyridine], the “Micropipette assay outcome” value ([8]; nurse shark, about 500 microliters into the mouth) is reported as “did not evoke a response”, the “Syringe 3/5/10 R (behavior response within tonic immobility), trials of trials” value (from here on “Syringe 3/5/10 R”) [9] is reported as 1/4 and the “Syringe 3/5/10 Y (termination of tonic immobility), trials of trials” value (from here on “Syringe 3/5/10 Y”) [9] is reported as 3/4. The “Syringe 3/5/10 R” value ([9]; listed as pyridine) was “one of four”, the “Syringe 3/5/10 Y” value ([9]; listed as pyridine) was “three of four” and the “result of initial tonic immobility assays” value [10] was “terminated tonic immobility”.
`CC=CC(=O)O` [crotonic acid solution (2-butenoic acid), 2-butenoic acid] was tested, and the “T? (termination of tonic immobility)” value [6] was “Y and R”, the “Syringe 3/5/10 N (no response), trials of trials” value [9] was 2/7 and the “Syringe 3/5/10 R” value [9] was 1/7. For the same compound, the “Syringe 3/5/10 Y” value [9] was 4/7, the “Syringe 3/5/10 N (no response), trials of trials” value [9, 12] was “two of the seven” and the “Syringe 3/5/10 R” value [9, 12] was “one of the seven”. For the same compound, the “Syringe 3/5/10 Y” value [9, 12] was “four of the seven”, the “Micropipette Y” value [7] was 2/2 and the screening result ([7]; lemon and nurse sharks) was “shark repelling compounds”.
With `CCCC(=O)O` [n-Butyric Acid, n-butyric acid] the “oral dose that terminated tonic immobility” value [11] was “no more than 100 microliters”, the “oral dose that terminated tonic immobility” value ([8]; juvenile nurse shark, micropipette) was “no more than 400 microliters” and the “Micropipette Y” value [7] was 2/2. For the same compound, the “Micropipette Y” value ([7]; listed as butyric acid) was “termination of tonic immobility” and the “mouth dose at which tonic immobility was terminated” value ([7]; juvenile lemon or nurse sharks) was 100 µL.
